The results in this text go back to EPA's ToxValDB 9.5 (doi:10.2903/j.efsa.2012.2927).

The data set relates to Rattus norvegicus. As to conditions: oral, no effects.
Setting [1] is: chronic, duration: 17 weeks, gavage.
The mark [2] stands for this setting: subchronic, duration: 90 days, diet.
The mark [3] stands for this setting: subchronic, duration: 90 days, drinking water.

SMILES strings stand for the structures. Counter-ions that a name gives are not always drawn.

For `CC(=O)OCCC(C)C` [3-Methylbutyl acetate], the NOAEL was > 1000 mg/kg-day under setting [1]; > 2500 mg/kg-day under setting [2]; > 1450 mg/kg-day under setting [3]; > 219 mg/kg-day (subchronic, duration: 90 days).
Regarding `CCC(=O)OCCC(C)C` [3-Methylbutyl propanoate], the no observed adverse effect level (NOAEL) was > 1000 mg/kg-day under setting [1]; > 2500 mg/kg-day under setting [2]; > 1450 mg/kg-day under setting [3]; > 219 mg/kg-day (subchronic, duration: 90 days).
For the molecule `CCC(C)COC(=O)CC(C)C` (stereo unspecified) [2-Methylbutyl isovalerate], the no observed adverse effect level (NOAEL) was > 1000 mg/kg-day under setting [1]; > 2500 mg/kg-day under setting [2]; > 1450 mg/kg-day under setting [3]; > 219 mg/kg-day (subchronic, duration: 90 days).
As to `CC(C)CCO` [Isopentyl alcohol], the no observed adverse effect level (NOAEL) under setting [1] was > 1000 mg/kg-day; the NOAEL under setting [2] was > 2500 mg/kg-day; the NOAEL under setting [3] was > 1450 mg/kg-day; the NOAEL (subchronic, duration: 90 days) is > 219 mg/kg-day.
`CCC(C)C(=O)OCCC(C)C` (stereo unspecified) [Butanoic acid, 2-methyl-, 3-methylbutyl ester]: the no-observed-adverse-effect level (NOAEL) reads like this: under setting [1], > 1000 mg/kg-day; under setting [2], > 2500 mg/kg-day; under setting [3], > 1450 mg/kg-day; (subchronic, duration: 90 days) > 219 mg/kg-day.
With `CC(C)CCOC(=O)C(C)C` [Isopentyl isobutyrate], the NOAEL is, setting by setting: under setting [1], > 1000 mg/kg-day; under setting [2], > 2500 mg/kg-day; under setting [3], > 1450 mg/kg-day; (subchronic, duration: 90 days) > 219 mg/kg-day.
Take `CC(C)C(=O)O` [2-Methylpropanoic acid]: the NOAEL by setting is: under setting [1], > 1000 mg/kg-day; under setting [2], > 2500 mg/kg-day; under setting [3], > 1450 mg/kg-day; (subchronic, duration: 90 days) > 219 mg/kg-day.
On to `CCCC(=O)OCC(COC(=O)CCC)OC(=O)CCC` [Glycerol tributyrate], for which the NOAEL is > 1000 mg/kg-day under setting [1]; > 2500 mg/kg-day under setting [2]; > 1450 mg/kg-day under setting [3]; > 219 mg/kg-day (subchronic, duration: 90 days).
Turning to `CCC(C)C=O` (stereo unspecified) [2-Methylbutanal], the no-observed-adverse-effect level (NOAEL) under setting [1] is > 1000 mg/kg-day; the NOAEL under setting [2] is > 2500 mg/kg-day; the no observed adverse effect level (NOAEL) under setting [3] is > 1450 mg/kg-day; the no observed adverse effect level (NOAEL) (subchronic, duration: 90 days) was > 219 mg/kg-day.
For `CCCCCC(C)C(=O)O` (stereo unspecified) [Heptanoic acid, 2-methyl-], the NOAEL under setting [1] is > 1000 mg/kg-day; the NOAEL under setting [2] was > 2500 mg/kg-day; the NOAEL under setting [3] is > 1450 mg/kg-day; the NOAEL (subchronic, duration: 90 days) is > 219 mg/kg-day.
In the case of `CCC(C)COC(C)=O` (stereo unspecified) [2-Methylbutyl acetate], the no observed adverse effect level (NOAEL) is, setting by setting: under setting [1], > 1000 mg/kg-day; under setting [2], > 2500 mg/kg-day; under setting [3], > 1450 mg/kg-day; (subchronic, duration: 90 days) > 219 mg/kg-day.
Consider `CCCC(=O)OCC(C)C` [Isobutyl butyrate], for which the NOAEL reads like this: under setting [1], > 1000 mg/kg-day; under setting [2], > 2500 mg/kg-day; under setting [3], > 1450 mg/kg-day; (subchronic, duration: 90 days) > 219 mg/kg-day.
`CC(C)CC=O` [3-Methylbutanal]: the no-observed-adverse-effect level (NOAEL) under setting [1] is > 1000 mg/kg-day; the no observed adverse effect level (NOAEL) under setting [2] is > 2500 mg/kg-day; the NOAEL under setting [3] was > 1450 mg/kg-day; the no-observed-adverse-effect level (NOAEL) (subchronic, duration: 90 days) was > 219 mg/kg-day.
`CCC(CC)C(=O)O` [2-Ethylbutyric acid]: the NOAEL was > 1000 mg/kg-day under setting [1]; > 2500 mg/kg-day under setting [2]; > 1450 mg/kg-day under setting [3]; > 219 mg/kg-day (subchronic, duration: 90 days).
Regarding `CC(=O)OCC(C)C` [Isobutyl acetate], the NOAEL was > 1000 mg/kg-day under setting [1]; > 2500 mg/kg-day under setting [2]; > 1450 mg/kg-day under setting [3]; > 219 mg/kg-day (subchronic, duration: 90 days).
The matching figures for `CC(C)CC(=O)O` [Isovaleric acid]: > 1000 mg/kg-day, > 2500 mg/kg-day, > 1450 mg/kg-day and > 219 mg/kg-day.
Regarding `CCCCC(C)CCC(=O)O` (stereo unspecified) [Octanoic acid, 4-methyl-], the no-observed-adverse-effect level (NOAEL) is > 1000 mg/kg-day under setting [1]; > 2500 mg/kg-day under setting [2]; > 1450 mg/kg-day under setting [3]; > 219 mg/kg-day (subchronic, duration: 90 days).
For `CCCC(=O)OCCC(C)C` [Isopentyl butyrate] the same measures were > 1000 mg/kg-day, > 2500 mg/kg-day, > 1450 mg/kg-day and > 219 mg/kg-day.
The matching figures for `CC(C)CCOC=O` [Isoamyl formate]: > 1000 mg/kg-day, > 2500 mg/kg-day, > 1450 mg/kg-day and > 219 mg/kg-day.
`CC(C)COC(=O)C(C)C` [Isobutyl isobutyrate]: the no-observed-adverse-effect level (NOAEL) is, setting by setting: under setting [1], > 1000 mg/kg-day; under setting [2], > 2500 mg/kg-day; under setting [3], > 1450 mg/kg-day; (subchronic, duration: 90 days) > 219 mg/kg-day.
For the molecule `CC(C)CO` [2-Methyl-1-propanol], the NOAEL under setting [1] is > 1000 mg/kg-day; the NOAEL under setting [2] is > 2500 mg/kg-day; the NOAEL under setting [3] was > 1450 mg/kg-day; the no-observed-adverse-effect level (NOAEL) (subchronic, duration: 90 days) was > 219 mg/kg-day.
In the case of `CCCC(=O)OCC(C)CC` (stereo unspecified) [Butanoic acid, 2-methylbutyl ester], the NOAEL under setting [1] was > 1000 mg/kg-day; the no-observed-adverse-effect level (NOAEL) under setting [2] is > 2500 mg/kg-day; the NOAEL under setting [3] is > 1450 mg/kg-day; the NOAEL (subchronic, duration: 90 days) is > 219 mg/kg-day.
Consider `CCCC(C)C(=O)O` (stereo unspecified) [2-Methylpentanoic acid], for which the no-observed-adverse-effect level (NOAEL) reads like this: under setting [1], > 1000 mg/kg-day; under setting [2], > 2500 mg/kg-day; under setting [3], > 1450 mg/kg-day; (subchronic, duration: 90 days) > 219 mg/kg-day.
As for `CC(C)COC(=O)CC(C)C` [Butanoic acid, 3-methyl-, 2-methylpropyl ester], the NOAEL by setting is: under setting [1], > 1000 mg/kg-day; under setting [2], > 2500 mg/kg-day; under setting [3], > 1450 mg/kg-day; (subchronic, duration: 90 days) > 219 mg/kg-day.

As usually defined, the NOAEL is the highest tested level that showed no adverse finding.
